Laboratory results taken from ChEMBL document CHEMBL1158950, “New Sesquiterpenes from Xanthium catharticum” (J Nat Prod, 1991).
The source made the active and inactive calls. No cut-off for these calls is given here.

Columns and labels:
[1] = system: Bacillus subtilis; assay: Antimicrobial activity against Bacillus subtilis; type: functional, organism-based
[2] = system: Staphylococcus aureus; assay: Antimicrobial activity against Staphylococcus aureus; type: functional, organism-based
[3] = system: Artemia salina; assay: Toxicity in Artemia salina; type: organism-based; conditions: in vivo
[4] = system: Agrobacterium tumefaciens; assay: Antitumor activity against Agrobacterium tumefaciens-induced crown gall tumor by potato disk assay; type: functional

Compound | Activity [1] | Activity [2] | LC50 [3] [ppm] | inhibition (INH) [4] [%]
CC(=O)/C=C/C1=CC[C@@H]2[C@H](C)C(=O)O[C@@H]2C[C@@H]1C | inactive | inactive | – | –
C=C1C(=O)O[C@@H]2CC(=C)[C@@H]3CC=C(C)[C@@H]3C[C@H]12 [GUAIANOLIDE ZINIOLIDE] | – | – | 14 | 49
